The text below walks through data of US7192981B2, “3,4-dihydroxyhydrocinnamic acid derivative” (Bionutrigen Co., Ltd., priority 2005, dated 2007).

In the assay the test system is isolated rat epididymal adipocytes. Briefly: Glucose transport assay (2-DOG uptake). The class given is cell-based. As to conditions: for glucose transport at higher doses: rat adipocytes, 4 h.

With `CN(C)C(=N)N=C(N)N` [metformin, reference compound], the “glucose transport at higher doses” value is “remained unchanged”. In the case of insulin, where the note is “insulin at the indicated concentrations, 30 min”, the glucose transport result is listed as “increased glucose transport in a dose-dependent manner”. With `COc1ccc(Cl)cc1C(=O)NCCc1ccc(S(=O)(=O)NC(=O)NC2CCCCC2)cc1` [glyburide, reference compound], the “glucose transport at higher doses” value is “decreased”.
